Key:
[1] = system: bacterial biofilms (MRSA); assay: biofilm assays (sustained inhibition and/or disruption), bacterial; assay type: cell-based, Staphylococcus aureus; details: Tables 4 and 5
Method: (§1) Other amino acids in the blood of animals could combat bacterial and fungal biofilm and therefore may be useful in treating these bacterial and fungal infections that would lie on the external surfaces of infected animals such as humans and could also be used to combat these pathogens on instruments and surfaces that need to be treated. Two types of biofilm assays were performed: a sustained inhibition assay and a disruption assay. The sustained inhibition assay assessed the compound's ability to prevent biofilm development throughout all stages of biofilm formation, while the disruption assay assessed the compound's ability to break up an existing mature biofilm.
(§2) For fungal biofilm assays, all solutions were prepared in RPMI 1640 medium. All bacterial biofilm solutions were prepared in Tryptic Soy Broth (TSB), supplemented with 1% glucose (henceforth referred to as TSB-G). All subsequent procedures were performed in a manner that maintained sterility. A solution of each amino acid to be tested was prepared in weight to volume concentrations ranging from 0.1-5.0%. Amino acids were also tested in combinations. Compound solutions were homogenized with gentle agitation in the dark (4° C., 24 hours) before use.
Bacterial strains were streaked on Blood Agar plates (5% sheep blood in Tryptic Soy Agar) and incubated at 37° C. for 24 hours. A single colony from each strain to be tested was inoculated in a TSB broth and grown for 12 hours, at 37° C. shaking at 225 rpm. For the bacterial biofilm inhibition assays, 1 μL of saturated overnight cell culture was added to either 80 μL of TSB-G, or TSB-G supplemented with the amino acid compound solution to be tested, in a 384-well plate. The cells were allowed to adhere to the plate for 60 minutes at 37° C. without shaking. The media was carefully aspirated and 80 μL of TSB-G, or TSB-G supplemented with the amino acid compound solution was added to the plate. The plate was further incubated for 24 hours at 37° C. without shaking. Media was carefully aspirated and the biofilm was measured by optical density at 600 nm. Eight or twelve replicates were performed for each tested condition and the reported values are normalized to the control (TSB-G media only). For the bacterial biofilm disruption assays, 80 μL of TSB-G was added to the plate, along with 1 μL of overnight cell culture. The cells were allowed to adhere to the plate for 60 minutes at 37° C. with no shaking. The media was carefully aspirated and 80 μL of TSB-G was added to the plate. The plate was further incubated for 24 hours at 37° C. with no shaking. Media was carefully aspirated from the mature biofilm and 80 μL of TSB-G, or TSB-G supplemented with the amino acid to be tested, was gently added to the plate. The plate was further incubated for 24 hours at 37° C. without shaking. Media was aspirated and the biofilm was measured by optical density at 600 nm. Twelve replicates were performed for each tested condition and the reported values are normalized to the control (TSB-G media only).

[2] = system: Candida and Staphylococcus biofilms; assay: biofilm assays (sustained inhibition and disruption), bacterial and fungal; assay type: cell-based, Candida albicans; Staphylococcus aureus; details: Tables 4 and 5
Method: In vitro biofilm formation was tested using two assays, sustained inhibition and disruption. Both assays assess biofilm formed on polystyrene plates. The first, tests the effects of amino acid solution on a developing biofilm, while the latter tests the effects of the solution on a pre-formed mature biofilm, both compared to media without supplemented amino acids.
as §1, §2
Fungal strains were streaked on Yeast Peptone Dextrose (YPD) agar plates and incubated at 30° C. for 48 hours. A single colony from each strain to be tested was inoculated into YPD broth and grown for 12 hours, at 30° C., shaking at 225 rpm. For the fungal biofilm inhibition assay, 1 μl of saturated overnight cell culture was added to either 80 μL of RPMI-1640 or RPMI-1640 supplemented with the amino acid compound solution to be tested, in a 384-well plate. The cells were allowed to adhere to the plate for 90 minutes at 37° C. shaking at 350 rpm. Loosely bound cells were washed once with phosphate buffered saline (PBS) and 80 μl of RPMI-1640, or RPMI-1640 supplemented with the amino acid compound solution was added to the plate. The plate was further incubated for 24 hours at 37° C. shaking at 350 rpm. Media was carefully aspirated and the biofilm was measured by optical density at 600 nm. Twelve replicates were performed for each tested condition and the reported values are normalized to the control (RPMI-1640 media only). For the fungal biofilm disruption assays, 80 μL of RPMI-1640 was added to the plate, along with 1 μL of overnight cell culture. The cells were allowed to adhere to the plate for 90 minutes at 37° C. shaking at 350 rpm. Loosely bound cells were washed once with PBS and 80 μL of RPMI-1640 was added to the plate. The plate was further incubated for 24 hours at 37° C. shaking at 350 rpm. Media was carefully aspirated from the mature biofilm and 80 μL of RPMI-1640, or RPMI-1640 supplemented with the amino acid compound solution to be tested, was gently added to the plate. The plate was further incubated for 24 hours at 37° C. shaking at 350 rpm. Media was carefully aspirated and the biofilm was measured by optical density at 600 nm. Twelve replicates were performed for each tested condition and the reported values are normalized to the control (RPMI-1640 media only).
Bacterial strains were streaked on Blood Agar plates (5% sheep blood in Tryptic Soy Agar) and incubated at 37° C. for 24 hours. A single colony from each strain to be tested was inoculated in a TSB broth and grown for 12 hours, at 37° C. shaking at 225 rpm. For the bacterial biofilm inhibition assays, 1 μL of saturated overnight cell culture was added to either 80 μL of TSB-G, or TSB-G supplemented with the amino acid compound solution to be tested, in a 384-well plate. […]

[3] = system: bacteria (S. aureus) biofilm and fungal (C. albicans) biofilm; assay: sustained inhibition biofilm assay, bacterial and fungal taken together; assay type: cell-based, Staphylococcus aureus; Candida albicans; details: 1% amino acid
Method: as §1, §2
Fungal strains were streaked on Yeast Peptone Dextrose (YPD) agar plates and incubated at 30° C. for 48 hours. A single colony from each strain to be tested was inoculated into YPD broth and grown for 12 hours, at 30° C., shaking at 225 rpm. For the fungal biofilm inhibition assay, 1 μl of saturated overnight cell culture was added to either 80 μL of RPMI-1640 or RPMI-1640 supplemented with the amino acid compound solution to be tested, in a 384-well plate. […] Media was carefully aspirated and the biofilm was measured by optical density at 600 nm. […] Media was carefully aspirated and the biofilm was measured by optical density at 600 nm. […]
Bacterial strains were streaked on Blood Agar plates (5% sheep blood in Tryptic Soy Agar) and incubated at 37° C. for 24 hours. […] Media was carefully aspirated and the biofilm was measured by optical density at 600 nm. […]

Row | SMILES | effect on MRSA biofilms in inhibition and disruption assays [1] | effect on Candida and Staphylococcus biofilms in inhibition and disruption assays [2] | Reduce Both [3]
1 | N[C@@H](CC(=O)O)C(=O)O [Aspartic Acid, L-aspartic acid] | both inhibited and disrupted | both inhibit and disrupt | ●● (two dots [i.e. ●●] signifies major effect (greater than about 30% change))
2 | N[C@@H](CS)C(=O)O [Cysteine, L-cysteine] | both inhibited and disrupted | both inhibit and disrupt | ●● (two dots [i.e. ●●] signifies major effect (greater than about 30% change))
3 | N[C@@H](CCC(=O)O)C(=O)O [Glutamic Acid, L-glutamic acid] | both inhibited and disrupted | both inhibit and disrupt | ●● (two dots [i.e. ●●] signifies major effect (greater than about 30% change))

Reference: patent US12226386B2, “Compositions and methods for treating biofilms” (The Regents of the University of California, priority 2018, dated 2025)
